The results in this text go back to patent publication US20240343727A1, “PYRIDAZINONE OR PYRIDINONE COMPOUNDS, PREPARATION METHODS AND USES THEREOF” (InventisBio Co., Ltd., priority 2021, published 2024).

A word on the IC50: it is the point on the concentration scale where inhibition reaches its midpoint.

The experiment has as its target T1, PARP7 (Homo sapiens, UniProt Q7Z3E1).
T1 sequence (Q7Z3E1 1-657): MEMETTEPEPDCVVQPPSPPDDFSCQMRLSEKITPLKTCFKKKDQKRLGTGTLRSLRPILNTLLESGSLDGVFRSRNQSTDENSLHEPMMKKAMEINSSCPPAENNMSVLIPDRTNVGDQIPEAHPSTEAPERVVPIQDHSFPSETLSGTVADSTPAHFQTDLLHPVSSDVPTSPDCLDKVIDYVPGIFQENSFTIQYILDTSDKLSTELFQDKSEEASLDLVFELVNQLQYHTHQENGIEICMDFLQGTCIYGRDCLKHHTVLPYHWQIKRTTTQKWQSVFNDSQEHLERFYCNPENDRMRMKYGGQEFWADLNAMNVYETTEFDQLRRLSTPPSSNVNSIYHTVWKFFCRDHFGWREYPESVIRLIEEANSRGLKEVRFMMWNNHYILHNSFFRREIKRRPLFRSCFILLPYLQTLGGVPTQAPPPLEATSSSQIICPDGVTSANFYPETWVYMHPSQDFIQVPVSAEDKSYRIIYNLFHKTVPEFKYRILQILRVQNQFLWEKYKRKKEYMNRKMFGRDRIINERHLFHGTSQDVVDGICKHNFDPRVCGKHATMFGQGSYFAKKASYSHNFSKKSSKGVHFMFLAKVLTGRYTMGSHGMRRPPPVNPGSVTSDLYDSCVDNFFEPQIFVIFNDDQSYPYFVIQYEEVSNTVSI
Nature of the experiment: PARP7 TR-FRET assay (binding, displacement of biotinylated Probe A). The settings on record: 6 nM PARP7, 2 nM Probe A, 25° C., 30 min. As to the method: Biological Assay Example A: PARP7 TR-FRET Assay
A time-resolved fluorescence energy transfer (TR-FRET) assay was used to test binding activity of compounds to PARP7. Two microliter test compound was added in 384-well plate. Reactions were performed in a 6 uL volume by adding 4 uL mixture of PARP7 and Probe A (a biotinylated probe binding to the PARP7: N-(6-(2-(4-((2-(6-oxo-5-(trifluoromethyl)-1,6-dihydropyridazin-4-yl) isoindolin-5-yl) oxy) piperidin-1-yl) acetamido) hexyl)-5-((3aS,4S,6aR)-2-oxohexahydro-1H-thieno [3,4-d]imidazol-4-yl) pentanamide, made as reported in WO2019212937A1) in assay buffer (20 mM HEPES pH 8.0, 100 mM NaCl, 0.1% BSA, 2 mM DTT and 0.002% Tween20). The final concentration of PARP7 and Probe A were 6 nM and 2 nM, incubating with test compounds at 25° C. for 30 min. Four microliter ULight-anti 6xHis and LANCE Eu-W1024 labeled streptavidin (PerkinElmer) were added with the final concentration of ULight-anti 6xHis and LANCE Eu-W1024 at 4 nM and 0.25 nM. The reaction mixture was incubated at 25° C. for 30 min. The plate was read on a Tecan Spark plate reader (excitation wavelength at 320 nm, emission wavelength at 615 nm and 665 nm with a 90 us delay. The ratio of the 665/615 nm emission was calculated for each well to the amount of complex of PARP7 and Probe A in each well was calculated. The 0.25% DMSO vehicle was used as control and no PARP7 well was as blank well. Inhibition rate is calculated with the formula of % inhibition=100-100*(TRFcmpd-TRFblank)/(TRFcontrol−TRFblank). Inhibition IC50 is calculated with the equation of Y=Bottom+ (Top-Bottom)/(1+10^((LogIC50−X) *Hill Slope))
On the technique in general: In TR-FRET formats the signal depends on donor and acceptor labels being close together.
Compound `N#Cc1ccc2c(c1)N(c1cc(C(F)(F)F)c(=O)[nH]n1)CC(CC(=O)N1CCN(c3ncc(C(F)(F)F)cn3)CC1)O2` (single isomer, unassigned) [Compound 200] showed an IC50 of less than 100 nM.
The same measure for `C#Cc1cc(N2CCOC(CC(=O)N3CCN(c4ncc(C(F)(F)F)cn4)CC3)C2)n[nH]c1=O` (single isomer, unassigned) [Compound 44]: 100 to 1000 nM; for `COC1CN(c2c(Oc3ccnc(C(=O)N4CCN(c5ncc(C(F)(F)F)cn5)[C@H](C)C4)c3)n[nH]c(=O)c2C(F)(F)F)C1` [Compound 342]: less than 100 nM.
Under `O=C(CC1CN(c2n[nH]c(=O)c3c(F)cccc23)CCO1)N1CCN(c2ncc(C(F)(F)F)cn2)CC1` (single isomer, unassigned) [Compound 94] stands less than 100 nM; under `O=C(CC1CN(c2n[nH]c(=O)c3c(F)cc(Cl)cc23)CCO1)N1CCN(c2ncc(C(F)(F)F)cn2)CC1` (stereo not drawn) [Compound 242], less than 100 nM; under `O=C(c1cccc(Oc2n[nH]c(=O)c(C(F)(F)F)c2NC2CC(F)(F)C2)c1)N1CCN(c2ncc(C(F)(F)F)cn2)CC1` [Compound 167], less than 100 nM.
The same measure for `O=C(CC1CN(c2cc(C(F)(F)F)c(=O)[nH]n2)c2ccccc2O1)N1CCN(c2ncc(C(F)F)cn2)CC1` (single isomer, unassigned) [Compound 248]: less than 100 nM; for `CC(C)C1CN(c2c(Oc3cccc(C(=O)N4CCN(c5ncc(C(F)(F)F)cn5)CC4)c3)n[nH]c(=O)c2C(F)(F)F)C1` [Compound 183]: less than 100 nM.
In turn, `O=C(CC1CN(c2n[nH]c(=O)c3ccc(C4CC4)cc23)CCO1)N1CCN(c2ncc(C(F)(F)F)cn2)CC1` (single isomer, unassigned) [Compound 105] yielded an IC50 of 100 to 1000 nM.
`C#Cc1c(C)c(N2CCOC(CC(=O)N3CCN(c4ncc(C(F)(F)F)cn4)CC3)C2)n[nH]c1=O` (single isomer, unassigned) [Compound 113]: the IC50 was in the range of 100 to 1000 nM.
The same measure for `O=C(c1cccc(Oc2n[nH]c(=O)c(C(F)(F)F)c2OCC2CCOCC2)c1)N1CCN(c2ncc(C(F)(F)F)cn2)CC1` [Compound 217]: less than 100 nM; for `O=C(CC1CN(c2cc(C(F)(F)F)c(=O)[nH]n2)c2cc(Cl)ccc2O1)N1CCN(c2cnc(C(F)(F)F)cn2)CC1` (single isomer, unassigned) [Compound 143]: less than 100 nM.
The same measure for `CS(=O)(=O)c1ccc2c(c1)N(c1cc(C(F)(F)F)c(=O)[nH]n1)CC(CC(=O)N1CCN(c3ncc(C(F)(F)F)cn3)CC1)O2` (single isomer, unassigned) [Compound 206]: less than 100 nM; for `Cn1cc(-c2ccc3c(c2)N(c2cc(C(F)(F)F)c(=O)[nH]n2)CC(CC(=O)N2CCN(c4ncc(C(F)(F)F)cn4)CC2)O3)cn1` (single isomer, unassigned) [Compound 193]: less than 100 nM.
Under `CNC1CC(Nc2c(Oc3cccc(C(=O)N4CCN(c5ncc(C(F)(F)F)cn5)CC4)c3)n[nH]c(=O)c2C(F)(F)F)C1` (stereo not drawn) [Compound 171] stands 100 to 1000 nM; under `C[C@@H]1CN(c2n[nH]c(=O)c3cccc(F)c23)C[C@H](CC(=O)N2CCN(c3ncc(C(F)(F)F)cn3)CC2)O1` (stereo in doubt) [Compound 119], more than 1000 nM; under `N#Cc1cnc(N2CCN(C(=O)CC3CN(c4cc(C(F)(F)F)c(=O)[nH]n4)c4ccccc4O3)CC2)nc1` (single isomer, unassigned) [Compound 251], 100 to 1000 nM.
With `N#Cc1ccc(N2CCN(C(=O)c3cncc(Oc4n[nH]c(=O)c(C(F)(F)F)c4N4CC5(C4)CC(F)(F)C5)c3)CC2)nc1` [Compound 237], the IC50 is less than 100 nM.
Turning to `O=C(CC1CN(c2cc(C(F)(F)F)c(=O)[nH]n2)c2cc(F)ccc2O1)N1CCN(c2ccc(C3CC3)cn2)CC1` (single isomer, unassigned) [Compound 301], the half-maximal inhibitory concentration (IC50) was more than 1000 nM.
Under `N#Cc1ccc(N2CCN(C(=O)c3cccc(Oc4n[nH]c(=O)c(C(F)(F)F)c4N4CC5(CCC5)C4)c3)CC2)nc1` [Compound 161] stands less than 100 nM; under `O=C(CC1CN(c2cc(C(F)(F)F)c(=O)[nH]n2)c2cc(C(F)F)ccc2O1)N1CCN(c2ncc(C(F)(F)F)cn2)CC1` (single isomer, unassigned) [Compound 228], less than 100 nM; under `C[C@H]1CN(c2cc(C(F)(F)F)c(=O)[nH]n2)C[C@H](CC(=O)N2CCN(c3ncc(C(F)(F)F)cn3)CC2)O1` (stereo in doubt) [Compound 111], less than 100 nM.
The same measure for `C[C@@H]1CN(C(=O)CC2CN(c3cc(C(F)(F)F)c(=O)[nH]n3)c3cc(C#N)ccc3O2)CCN1c1ncc(Cl)cn1` (single isomer, unassigned) [Compound 141]: less than 100 nM; for `N#CC1(c2ccnc(N3CCN(C(=O)CC4CN(c5cc(C(F)(F)F)c(=O)[nH]n5)c5cc(F)ccc5O4)CC3)n2)CC1` (single isomer, unassigned) [Compound 343]: less than 100 nM; for `O=C(c1cccc(Oc2n[nH]c(=O)c(C(F)(F)F)c2N2CC3(CCC3)C2)c1)N1CCN(c2ncc(C3CC3)cn2)CC1` [Compound 226]: less than 100 nM.
Turning to `CC1CN(c2c(Oc3cccc(C(=O)N4CCN(c5ncc(C(F)(F)F)cn5)CC4)c3)n[nH]c(=O)c2C(F)(F)F)C1` [Compound 181], the IC50 was less than 100 nM.
The same measure for `O=C(CC1CN(c2n[nH]c(=O)c3ccc(OCC(F)F)cc23)CCO1)N1CCN(c2ncc(C(F)(F)F)cn2)CC1` (single isomer, unassigned) [Compound 210]: less than 100 nM; for `N#Cc1ccc(N2CCN(C(=O)CC3CN(c4cc(C(F)(F)F)c(=O)[nH]n4)c4cc(F)ccc4O3)CC2)nc1` (single isomer, unassigned) [Compound 269]: 100 to 1000 nM; for `N#Cc1ccc(N2CCN(C(=O)CC3CN(c4cc(C(F)(F)F)c(=O)[nH]n4)c4cc(F)ccc4O3)CC2)nc1` (single isomer, unassigned) [Compound 268]: less than 100 nM.
Compound `O=C(c1cccc(Oc2n[nH]c(=O)c(C(F)(F)F)c2C2CC2)c1)N1CCN(c2ncc(C(F)(F)F)cn2)CC1` [Compound 173] registered an IC50 of less than 100 nM.
The same measure for `O=C(CC1CN(c2cc(C(F)(F)F)c(=O)[nH]n2)c2ccccc2O1)N1CCN(c2cnc(C(F)(F)F)cn2)CC1` (single isomer, unassigned) [Compound 263]: 100 to 1000 nM.
Under `O=C(CC1CN(c2cc(C(F)(F)F)c(=O)[nH]n2)CCC1(F)F)N1CCN(c2ncc(C(F)(F)F)cn2)CC1` (single isomer, unassigned) [Compound 108] stands less than 100 nM; under `O=C(c1cccc(Oc2n[nH]c(=O)c(C(F)(F)F)c2N2CC3(CCC3)C2)c1)N1CCN(c2nnc(C(F)(F)F)s2)CC1` [Compound 231], less than 100 nM; under `O=C(CC1CN(c2n[nH]c(=O)c3cc(Cl)ccc23)CCO1)N1CCN(c2ncc(C(F)(F)F)cn2)CC1` (single isomer, unassigned) [Compound 99], less than 100 nM.
Under `O=C(c1cccc(Oc2n[nH]c(=O)c(C(F)(F)F)c2N2CC3(CCC3)C2)c1)N1CCn2c(nnc2C(F)(F)F)C1` [Compound 178] stands 100 to 1000 nM; under `O=C(CC1CN(c2n[nH]c(=O)c3ccc(C4CC4)cc23)CCO1)N1CCN(c2ncc(C(F)(F)F)cn2)CC1` (single isomer, unassigned) [Compound 103], less than 100 nM.
In turn, `O=C(CC1CN(c2n[nH]c(=O)c3c(Cl)cccc23)CCO1)N1CCN(c2ncc(C(F)(F)F)cn2)CC1` (single isomer, unassigned) [Compound 98] had an IC50 of less than 100 nM.
The same measure for `Cc1c(Oc2cccc(C(=O)N3CCN(c4ncc(C(F)(F)F)s4)CC3)c2)n[nH]c(=O)c1C(F)(F)F` [Compound 66]: less than 100 nM.
With `O=C(CO[C@H]1CCNc2c1n[nH]c(=O)c2C(F)(F)F)N1CCN(c2ncc(C(F)(F)F)cn2)CC1` (single isomer, unassigned) [Compound 3], the IC50 was in the range of 100 to 1000 nM.
